Laboratory results from publication PMC10339456, “Exploring the 5-Substituted 2-Aminobenzothiazole-Based DNA Gyrase B Inhibitors Active against ESKAPE Pathogens” (ACS Omega, 2023).
Read-outs that look alike come from different tables or passages of the source.

Columns and labels:
Gram-negative strains [1] = tested on: Gram-negative strains; set-up: method as in PMID 33524686; settings: cited from earlier work
K. pneumoniae ATCC10031 [2] = tested on: K. pneumoniae ATCC10031; set-up: method as in PMID 33524686; settings: cited from earlier work
A. baumannii ATCC17978 [3] = tested on: A. baumannii ATCC17978; set-up: method as in PMID 33524686; settings: cited from earlier work
P. aeruginosa ATCC27853 [4] = tested on: P. aeruginosa ATCC27853; set-up: method as in PMID 33524686; settings: cited from earlier work
[5] = tested on: S. aureus (MRSA) ATCC43300; set-up: method as in PMID 33524686; settings: cited from earlier work
E. coli ATCC25922 [6] = tested on: E. coli ATCC25922; set-up: method as in PMID 33524686; settings: cited from earlier work
E. coli Topo IV [7] = molecular target: T1, E. coli Topo IV (Escherichia coli, UniProt P20083); set-up: method as in PMID 33524686; settings: relaxation; compound previously prepared and tested; cited from earlier work
T1 construct: purchased Inspiralis Limited, Norwich, UK
T1 sequence (P20083 whole entry): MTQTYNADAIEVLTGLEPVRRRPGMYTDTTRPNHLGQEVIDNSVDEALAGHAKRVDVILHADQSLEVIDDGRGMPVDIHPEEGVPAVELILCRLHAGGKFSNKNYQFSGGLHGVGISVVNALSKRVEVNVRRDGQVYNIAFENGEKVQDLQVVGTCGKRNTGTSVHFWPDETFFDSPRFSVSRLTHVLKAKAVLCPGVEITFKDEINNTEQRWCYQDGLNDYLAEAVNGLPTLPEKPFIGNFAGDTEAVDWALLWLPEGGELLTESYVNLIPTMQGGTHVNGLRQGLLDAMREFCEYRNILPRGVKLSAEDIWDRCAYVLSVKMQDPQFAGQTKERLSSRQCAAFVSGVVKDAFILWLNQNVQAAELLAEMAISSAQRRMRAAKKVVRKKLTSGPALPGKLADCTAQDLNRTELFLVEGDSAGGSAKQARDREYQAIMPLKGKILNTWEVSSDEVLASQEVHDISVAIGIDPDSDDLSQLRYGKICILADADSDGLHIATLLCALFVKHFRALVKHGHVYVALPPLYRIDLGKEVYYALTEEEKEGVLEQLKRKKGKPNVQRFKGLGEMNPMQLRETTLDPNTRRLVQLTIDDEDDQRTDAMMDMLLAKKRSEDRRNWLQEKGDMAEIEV
T1 sequence (P0AFI2 whole entry, further chain): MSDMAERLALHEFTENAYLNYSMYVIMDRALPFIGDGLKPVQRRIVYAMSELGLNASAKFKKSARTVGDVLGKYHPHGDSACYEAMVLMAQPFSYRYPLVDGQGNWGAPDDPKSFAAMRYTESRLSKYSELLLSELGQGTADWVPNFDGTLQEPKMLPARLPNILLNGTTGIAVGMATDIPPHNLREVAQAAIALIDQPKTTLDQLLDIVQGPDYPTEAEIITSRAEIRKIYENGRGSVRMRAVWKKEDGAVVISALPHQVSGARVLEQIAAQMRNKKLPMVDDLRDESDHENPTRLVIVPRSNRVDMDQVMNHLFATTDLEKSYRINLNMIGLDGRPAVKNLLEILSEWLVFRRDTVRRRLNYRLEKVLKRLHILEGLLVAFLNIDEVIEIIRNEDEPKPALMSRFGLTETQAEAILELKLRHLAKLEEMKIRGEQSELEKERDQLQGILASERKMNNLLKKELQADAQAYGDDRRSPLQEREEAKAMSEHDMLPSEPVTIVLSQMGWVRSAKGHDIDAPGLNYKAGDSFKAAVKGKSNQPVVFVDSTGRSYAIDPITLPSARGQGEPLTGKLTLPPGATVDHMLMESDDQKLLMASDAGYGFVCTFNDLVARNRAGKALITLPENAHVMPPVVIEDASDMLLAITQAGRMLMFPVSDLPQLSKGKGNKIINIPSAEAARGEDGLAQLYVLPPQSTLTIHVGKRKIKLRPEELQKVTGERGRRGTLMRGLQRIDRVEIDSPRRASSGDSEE

S. aureus ATCC29213 [8] = tested on: S. aureus ATCC29213; set-up: method as in PMID 33524686; settings: cited from earlier work
E. coli gyrase [9] = molecular target: T2, E. coli gyrase (Escherichia coli, UniProt P0AES6); set-up: method as in PMID 33524686; settings: supercoiling; compound previously prepared and tested; cited from earlier work
T2 construct: purchased Inspiralis Limited, Norwich, UK

E. coli Topo IV [10] = molecular target: T1, E. coli Topo IV; test: Topo IV relaxation assay (Inspiralis kit); type: biochemical
Protocol: (§1) Compounds B, C, D, and E were evaluated against DNA gyrase from E. coli supercoiling and against Topo IV in relaxation assay. The results are presented in Table 1 and Figure S5 as concentrations of compounds that inhibit the enzyme activity by 50% (IC50 values). […] Compounds B, C, D, and E were tested for antibacterial activity against Gram-positive and Gram-negative bacteria, including ESKAPE pathogens.
(§2) Commercially available assay kits (Inspiralis Limited, Norwich, UK) were used for the determination of IC50 values for test compounds for inhibition of DNA gyrase supercoiling and Topo IV and TopoIIα relaxation. Assays were performed according to previously reported procedures.[25] For details on enzyme assays, see the Supporting Information.

Gram-negative strains [11] = test: MIC, summary in text over Gram-negative strains; type: cell-based; settings: for MIC: read-out: MIC against Gram-negative strains (no activity); for MIC range against Gram-negative strains: E. coli, A. baumannii, P. aeruginosa, and K. pneumoniae
Protocol: (§3) To evaluate selectivity against a related human target, compounds D and E were tested for their inhibitory activity on human topoisomerase IIα.
(§4) Antimicrobial assays (MICs) were performed by a standard serial broth microdilution method. For details on antimicrobial assays, see the Supporting Information.

E. coli gyrase [12] = molecular target: T2, E. coli gyrase; test: DNA gyrase supercoiling assay (Inspiralis kit); type: biochemical; settings: mean ± SD of three independent experiments
Protocol: as §1, §2

E. coli ATCC25922 [13] = test: MIC, broth microdilution (CLSI); type: cell-based; settings: Escherichia coli
Protocol: as §4

P. aeruginosa ATCC27853 [14] = test: MIC, broth microdilution (CLSI); type: cell-based; settings: Pseudomonas aeruginosa
Protocol: as §4

A. baumannii ATCC17978 [15] = test: MIC, broth microdilution (CLSI); type: cell-based; settings: Acinetobacter baumannii
Protocol: as §4

[16] = tested on: Enterobacter cloacae ATCC13047; test: MIC, broth microdilution (CLSI); type: cell-based
Protocol: as §4

S. aureus ATCC29213 [17] = test: MIC, broth microdilution (CLSI); type: cell-based; settings: Staphylococcus aureus
Protocol: as §4

[18] = tested on: S. aureus (MRSA) ATCC43300; test: MIC, broth microdilution (CLSI); type: cell-based; settings: Staphylococcus aureus
Protocol: as §4

K. pneumoniae ATCC10031 [19] = test: MIC, broth microdilution (CLSI); type: cell-based; settings: Klebsiella pneumoniae
Protocol: as §4

human topoisomerase IIα = molecular target: T3, human topoisomerase IIα (Homo sapiens, UniProt P11388); test: Human topoisomerase IIα relaxation assay (selectivity); type: biochemical; settings: read-out: enzyme residual activity human topoisomerase IIα
T3 construct: purchased Inspiralis Limited, Norwich, UK
T3 sequence (P11388 whole entry): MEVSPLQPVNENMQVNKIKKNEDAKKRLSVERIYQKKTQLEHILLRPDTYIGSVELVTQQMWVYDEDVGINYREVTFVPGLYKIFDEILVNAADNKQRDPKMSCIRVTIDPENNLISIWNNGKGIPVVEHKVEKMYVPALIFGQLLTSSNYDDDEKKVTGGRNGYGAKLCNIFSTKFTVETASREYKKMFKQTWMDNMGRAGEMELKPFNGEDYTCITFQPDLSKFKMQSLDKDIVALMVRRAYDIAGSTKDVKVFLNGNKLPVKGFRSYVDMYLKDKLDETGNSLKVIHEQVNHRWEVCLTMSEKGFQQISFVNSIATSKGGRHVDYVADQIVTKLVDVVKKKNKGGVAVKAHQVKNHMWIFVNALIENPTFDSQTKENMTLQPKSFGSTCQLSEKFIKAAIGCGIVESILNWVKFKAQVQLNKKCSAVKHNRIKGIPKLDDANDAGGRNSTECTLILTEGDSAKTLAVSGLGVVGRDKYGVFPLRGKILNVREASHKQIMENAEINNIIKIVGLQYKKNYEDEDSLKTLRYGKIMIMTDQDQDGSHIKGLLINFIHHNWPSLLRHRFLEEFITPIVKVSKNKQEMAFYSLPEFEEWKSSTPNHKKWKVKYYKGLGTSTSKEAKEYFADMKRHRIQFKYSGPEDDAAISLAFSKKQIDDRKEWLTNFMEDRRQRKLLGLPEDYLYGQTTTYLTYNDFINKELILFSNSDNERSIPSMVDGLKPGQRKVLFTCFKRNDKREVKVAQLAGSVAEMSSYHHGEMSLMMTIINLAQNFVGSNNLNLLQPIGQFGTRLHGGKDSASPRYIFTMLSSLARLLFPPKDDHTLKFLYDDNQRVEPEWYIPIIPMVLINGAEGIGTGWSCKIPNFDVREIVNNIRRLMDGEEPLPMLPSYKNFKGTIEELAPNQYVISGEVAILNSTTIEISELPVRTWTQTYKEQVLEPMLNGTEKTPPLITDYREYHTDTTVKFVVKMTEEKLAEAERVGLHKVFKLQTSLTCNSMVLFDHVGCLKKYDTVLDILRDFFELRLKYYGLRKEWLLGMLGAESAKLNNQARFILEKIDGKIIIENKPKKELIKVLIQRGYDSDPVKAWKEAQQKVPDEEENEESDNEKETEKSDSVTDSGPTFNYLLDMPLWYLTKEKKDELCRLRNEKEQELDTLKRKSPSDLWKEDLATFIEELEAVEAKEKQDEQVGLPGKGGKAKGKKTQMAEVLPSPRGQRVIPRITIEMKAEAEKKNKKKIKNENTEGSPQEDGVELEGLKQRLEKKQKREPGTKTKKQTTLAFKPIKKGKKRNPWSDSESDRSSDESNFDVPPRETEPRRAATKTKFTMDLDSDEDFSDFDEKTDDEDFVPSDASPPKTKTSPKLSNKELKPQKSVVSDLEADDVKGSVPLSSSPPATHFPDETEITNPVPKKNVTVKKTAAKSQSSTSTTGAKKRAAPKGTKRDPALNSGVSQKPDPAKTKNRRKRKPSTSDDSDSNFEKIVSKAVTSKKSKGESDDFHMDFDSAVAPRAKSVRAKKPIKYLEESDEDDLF
Protocol: as §3, §2

[20] = tested on: S. aureus (VISA) ATCC700699; test: MIC, broth microdilution (CLSI); type: cell-based; settings: Staphylococcus aureus
Protocol: as §4

E. faecium ATCC700221 = test: MIC, broth microdilution (CLSI); type: cell-based; settings: Enterococcus faecium
Protocol: as §4

[21] = tested on: Gram-positives S. aureus, MRSA, VISA, and E. faecium; test: MIC, summary over Gram-positive strains; type: cell-based; settings: most strains
Protocol: as §3, §4

[22] = mean ± SD of three independent experiments, read-out: IC50 E. coli Topo IV

SMILES | IC50 (E. coli Topo IV [10]; [22]) [nM] | MIC (Gram-negative strains [11]) [µg/mL] | IC50 (E. coli gyrase [12]) [nM] | MIC (E. coli ATCC25922 [13]; first value of cell) [µg/mL] | MIC (E. coli ATCC25922 [13]; second value of cell) [µM] | MIC (P. aeruginosa ATCC27853 [14]; first value of cell) [µg/mL] | MIC (P. aeruginosa ATCC27853 [14]; second value of cell) [µM] | MIC (A. baumannii ATCC17978 [15]; first value of cell) [µg/mL] | MIC (A. baumannii ATCC17978 [15]; second value of cell) [µM] | MIC ([16]; first value of cell) [µg/mL] | MIC ([16]; second value of cell) [µM] | MIC (S. aureus ATCC29213 [17]; first value of cell) [µg/mL] | MIC (S. aureus ATCC29213 [17]; second value of cell) [µM] | MIC ([18]; first value of cell) [µg/mL] | MIC ([18]; second value of cell) [µM] | MIC (K. pneumoniae ATCC10031 [19]; first value of cell) [µg/mL] | MIC (K. pneumoniae ATCC10031 [19]; second value of cell) [µM] | MIC range against Gram-negative strains (Gram-negative strains [11]) [µg/mL] | remaining activity at 100 µM (human topoisomerase IIα) [%] | MIC ([20]; first value of cell) [µg/mL] | further results
Cc1[nH]c(C(=O)Nc2nc3cc(O)c(C(=O)O)cc3s2)c(Cl)c1Cl [Compound A] |  |  |  |  |  |  |  |  |  |  |  |  |  |  |  |  |  |  |  |  | MIC against Gram-negative bacterial strains (inactive) (Gram-negative strains [1]): > 64 µg/mL; MIC K. pneumoniae ATCC10031 (K. pneumoniae ATCC10031 [2]; first value of cell): 8 µg/mL; MIC K. pneumoniae ATCC10031 (K. pneumoniae ATCC10031 [2]; second value of cell): 21 µM; MIC A. baumannii ATCC17978 (A. baumannii ATCC17978 [3]; first value of cell): > 64 µg/mL; MIC A. baumannii ATCC17978 (A. baumannii ATCC17978 [3]; second value of cell): > 166 µM; MIC P. aeruginosa ATCC27853 (P. aeruginosa ATCC27853 [4]; first value of cell): > 64 µg/mL; MIC P. aeruginosa ATCC27853 (P. aeruginosa ATCC27853 [4]; second value of cell): > 166 µM; MIC S. aureus (MRSA) ATCC43300 ([5]; first value of cell): 4 µg/mL; MIC S. aureus (MRSA) ATCC43300 ([5]; second value of cell): 10 µM; MIC E. coli ATCC25922 (E. coli ATCC25922 [6]; first value of cell): > 64 µg/mL; MIC E. coli ATCC25922 (E. coli ATCC25922 [6]; second value of cell): > 166 µM; IC50 (E. coli Topo IV [7]): 95 nM; MIC S. aureus ATCC29213 (S. aureus ATCC29213 [8]; first value of cell): 16 µg/mL; MIC S. aureus ATCC29213 (S. aureus ATCC29213 [8]; second value of cell): 41 µM; IC50 (E. coli gyrase [9]): < 10 nM
Cc1[nH]c(C(=O)Nc2nc3c(C)c(F)c(C(=O)O)cc3s2)c(Cl)c1Cl [Compound B] | 2000 ± 900 | > 64 | 40 | > 64 | > 159 | > 64 | > 159 | > 64 | > 159 | > 64 | > 159 | 0.5 | 1.2 | 0.25 | 0.6 | > 64 | > 159 |  |  |  | 
CC(=O)N(Cc1ccccc1)c1cc2nc(NC(=O)c3[nH]c(C)c(Cl)c3Cl)sc2cc1C(=O)O [Compound C] |  | > 64 | 71 | > 64 | > 124 | > 64 | > 124 | > 64 | > 124 | > 64 | > 124 | 8 | 16 | 8 | 16 | 64 | 124 |  |  |  | IC50 (E. coli Topo IV [10]; E. coli, read-out: IC50 Topo IV): 4000 nM
Cc1[nH]c(C(=O)Nc2nc3cc(NCc4ccccc4)c(C(=O)O)cc3s2)c(Cl)c1Cl [Compound D] | 293 ± 155 |  | < 10 | 16 | 34 | 8 | 17 | 8 | 17 | > 64 | > 135 | < 0.03 | < 0.07 | < 0.03 | < 0.07 | 4 | 8.4 | 4 to 16 | 100 | < 0.03 | MIC ([20]; second value of cell): < 0.07 µM; MIC (E. faecium ATCC700221; first value of cell): < 0.13 µg/mL; MIC (E. faecium ATCC700221; second value of cell): < 0.26 µM; MIC [21]: < 0.03 µg/mL
COCCCNc1cc2nc(NC(=O)c3[nH]c(C)c(Cl)c3Cl)sc2cc1C(=O)O [Compound E] | 210 |  | < 10 | 8 | 18 | 16 | 35 | 4 | 9 | > 64 | > 140 | < 0.03 | < 0.07 | < 0.03 | < 0.07 | 4 | 9 | 4 to 16 | 55 | < 0.03 | MIC ([20]; second value of cell): < 0.07 µM; MIC (E. faecium ATCC700221; first value of cell): < 0.06 µg/mL; MIC (E. faecium ATCC700221; second value of cell): < 0.14 µM; MIC [21]: < 0.03 µg/mL
